Test results published in paper PMC12265377, “CC48 a new CB2R agonist/FAAH inhibitor dual drug blocks gastric cancer progression and overcomes paclitaxel resistance” (Journal of Experimental & Clinical Cancer Research : CR, 2025).
Read-outs that look alike come from different tables or passages of the source.

How the values were obtained:
AGS cells [1] = assay: Muse Annexin V apoptosis assay; assay type: cell-based, human; details: 48 h, 6 µM AM630, 10 µM others
Source text: (§1) After the specified drug treatments, the cells were processed using the Muse Annexin V/Dead Cell Assay Kit (Luminex Corporation, Austin, USA) for quantitative analysis of live, early/ late apoptotic, and dead cells on a Muse Cell Analyzer. Briefly, the assay utilized Annexin V to detect phosphatidylserine on the external membrane of apoptotic cells. The fluorescent signal emitted by dye-conjugated antibodies was detected by flow cytometry technology (Muse Cell Analyzer, Luminex Corporation, Austin, USA). 7-Amino-Actinomycin D (7-AAD) dead cell marker was also used. The cells were then analyzed according to the user’s guide. […] After 48 h treatments the cells were processed according to the user’s guide and analyzed with the Muse caspase-3/7 kit (Millipore).The assay provides the relative percentage of living, early/late apoptotic or dead cells.

HGC27-S cells [2] = assay: Muse Annexin V apoptosis assay; assay type: cell-based, human; details: 48 h, 6 µM AM630, 10 µM others
Source text: as §1

P-gp = P-gp (Homo sapiens, UniProt P08183); assay: P-gp interaction assay (Calcein-AM, MDCK-MDR1 cells)
P-gp, sequence (P08183 whole entry): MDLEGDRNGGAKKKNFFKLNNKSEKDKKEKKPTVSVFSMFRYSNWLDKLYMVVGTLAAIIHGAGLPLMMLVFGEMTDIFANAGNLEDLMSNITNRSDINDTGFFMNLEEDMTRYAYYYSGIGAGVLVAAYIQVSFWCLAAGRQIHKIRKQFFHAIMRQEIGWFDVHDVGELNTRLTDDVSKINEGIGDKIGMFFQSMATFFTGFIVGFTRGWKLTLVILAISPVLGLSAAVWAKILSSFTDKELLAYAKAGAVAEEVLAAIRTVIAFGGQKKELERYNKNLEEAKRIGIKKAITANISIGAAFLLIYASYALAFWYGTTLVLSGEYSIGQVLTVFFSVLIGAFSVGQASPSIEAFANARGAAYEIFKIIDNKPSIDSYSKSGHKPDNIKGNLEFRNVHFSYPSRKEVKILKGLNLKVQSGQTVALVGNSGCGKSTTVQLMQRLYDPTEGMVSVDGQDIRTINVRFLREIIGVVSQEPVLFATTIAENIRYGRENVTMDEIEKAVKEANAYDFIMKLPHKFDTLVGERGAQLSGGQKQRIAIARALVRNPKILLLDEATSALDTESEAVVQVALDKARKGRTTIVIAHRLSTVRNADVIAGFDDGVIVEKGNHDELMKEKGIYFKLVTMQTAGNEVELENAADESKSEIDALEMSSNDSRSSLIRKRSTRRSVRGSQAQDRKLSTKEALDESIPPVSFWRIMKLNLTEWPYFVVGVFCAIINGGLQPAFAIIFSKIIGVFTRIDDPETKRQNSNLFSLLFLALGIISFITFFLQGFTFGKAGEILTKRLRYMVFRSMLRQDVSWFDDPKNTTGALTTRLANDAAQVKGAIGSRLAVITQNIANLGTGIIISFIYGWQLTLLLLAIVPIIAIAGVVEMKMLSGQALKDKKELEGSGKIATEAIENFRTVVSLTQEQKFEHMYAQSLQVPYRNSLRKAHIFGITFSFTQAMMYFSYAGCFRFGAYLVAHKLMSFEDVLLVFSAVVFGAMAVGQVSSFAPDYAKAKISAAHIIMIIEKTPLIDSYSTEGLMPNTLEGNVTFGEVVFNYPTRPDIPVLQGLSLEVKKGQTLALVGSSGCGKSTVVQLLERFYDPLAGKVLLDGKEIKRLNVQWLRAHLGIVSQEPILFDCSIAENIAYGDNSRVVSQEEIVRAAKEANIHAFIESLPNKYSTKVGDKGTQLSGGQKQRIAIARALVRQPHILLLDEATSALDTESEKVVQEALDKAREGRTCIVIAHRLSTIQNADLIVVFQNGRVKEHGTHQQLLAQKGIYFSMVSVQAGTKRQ
Procedure: This experiment was carried out as described by Contino et al. with minor modifications. MDCK-MDR1 cells, stably overexpressing P-gp, (30.000 cells per well) were seeded into black CulturePlate96/wells plate with 100 µL medium and allowed to become confluent overnight. Each test compound solubilized in culture medium was added to cell monolayers, reaching the tested final concentrations (ranging from 0.1 to 100 µM). Each 96/wells plate was incubated at 37 °C for 30 min. […] Each well was washed 3 times with ice cold PBS. […] In these experimental conditions, Calcein cell accumulation in the absence and presence of tested compounds was evaluated and the fluorescence basal level was estimated in untreated cells. In treated wells the increase of fluorescence compared to basal level was measured. EC50 values were determined on the fluorescence increase percentage versus log [dose].

HGC27-S cells [3] = assay: Muse Ki67 cell proliferation assay; assay type: cell-based, human
Source text: After the specified drug treatments, the cells were processed with the Muse Ki67 cell proliferation kit, which identified actively proliferating cells based on the expression of Ki67, a nuclear protein present in the active phases of the cell cycle (G1, S, G2, and M phases) and absent in the resting G0 phase. The Muse Ki67 Proliferation Assay was used with the Guava Muse Cell Analyzer according to the manufacturer’s instructions (Luminex Corporation, Austin, USA). Briefly, the cells were stained after fixation and permeabilization procedures, using Hu Ki67 or Hu IgG1 control fluorochrome-conjugated antibodies to distinguish Ki67(+) or Ki67(-) cells, respectively. The software provided the percentage of both Ki67(+) and Ki67(-) cells.

HGC27-R cells [4] = assay: Migration (scratch) assay; assay type: cell-based, human; details: scratch assay 24 h, highest concentration
Procedure: (§2) HGC27-S/R and AGS cells were grown until confluence. A scratch wound was generated with a pipette tip. […] Photographs were taken of each well immediately (T0) and at various times, T1 (9 h), T2 (24 h), and T3 (48 h), using a Leica DMRXA camera (Leica Microsystems, Milan, Italy). The images were analyzed using ImageJ Software (http://rsb.info.nih.gov/ij/). The distance that cells migrated through the scratch area was determined by measuring the wound width at T1, T2 and T3 and subtracting it from the wound width at the start (T0). The relative migration rate was calculated by setting the percentage of migration of the control cells at time T2 equal to 1 and comparing the percentage of migration of the cells after each drug treatment to this value. The results are representative of three independent experiments.

AGS cells [5] = assay: Migration (scratch) assay; assay type: cell-based, human; details: scratch assay 24 h, 6 µM AM630, 10 µM others
Procedure: as §2

HGC27-S cells [6] = assay: Migration (scratch) assay; assay type: cell-based, human; details: scratch assay 24 h, 6 µM AM630, 10 µM others
Procedure: as §2

[7] = test system: HGC27-S/R and AGS cell lines; assay: Autophagy assay (western blot of autophagy proteins); assay type: cell-based, human; details: 48 h, 1 and 10 µM (AM630 1 and 6 µM)
Procedure: Cells were rinsed with ice-cold lysis buffer (50 mM Tris,10 mM EDTA, 1% v/v Triton-X100), supplemented with protease inhibitor cocktail set III (80 µM aprotinin, 5 mM bestatin, 1.5 mM leupeptin, 1 mM pepstatin; Sigma-Merck, St. Louis, MO), 2 mM phenylmethyl sulfonyl fluoride and 1 mM Na3VO4, then sonicated and centrifuged at 13,000 g for 10 min at 4 °C. 20 µg protein extracts were subjected to SDS-PAGE and probed with the following antibodies: anti-ATG5 (#ab108327, diluted 1:1000), anti-ATG7 (#ab52472, diluted 1:5000), anti-ATG12 (#ab303488, diluted 1:1000), anti-Beclin (#ab210498, diluted 1:1000), anti-p62 (#ab109012, diluted 1:10000), anti-LC3 (#ab192890, diluted 1:2000)(all from Abcam, Cambridge, UK) or anti-β-tubulin antibody (#sc-5274, diluted 1:1000; Santa Cruz Biotechnology Inc.,Santa Cruz, CA, USA), followed by incubation with a peroxidase conjugated secondary antibody (Bio-Rad Laboratories, Hercules, CA). After washing in Tris-buffered saline (TBS)-Tween 0.1% v/v solution, proteins were detected by enhanced chemiluminescence (Bio-Rad Laboratories).Total protein expression was quantified using the ImageJ software (http://rsb.info.nih.gov/ij/). The expression level of each of the investigated protein was normalized to the β-tubulin level.

HGC27-R cells [8] = assay: VEGFA in cell culture medium (ELISA); assay type: cell-based, human; details: 10 µM, 48 h, untreated 10.5
Procedure: (§3) The amount of VEGFA secreted in the culture medium by HGC27-S/R and AGS treated cells was measured using a highly sensitive Enzyme-Linked Immunosorbent Assay (ELISA), Quantikine Kit ELISA (R&D Systems, Minneapolis, MN, USA), according to the manufacturer’s instructions. The measured values were normalized to the number of cells.

AGS cells [9] = assay: VEGFA in cell culture medium (ELISA); assay type: cell-based, human; details: 10 µM, 48 h, untreated 8.3
Procedure: as §3

CB1R = details: cited from earlier work
[10] = read-out: P-gp activity, EC50, ± SEM, MDCK-MDR1 cells, Calcein-AM
[11] = HGC27-S, representative flow cytometry chart, 48 h, 10 µM CC48, PTX, single or combined as labelled

Structure (SMILES) | increase in apoptotic cells compared to untreated cells (Annexin V) (AGS cells [1]) | increase in apoptotic cells compared to untreated cells (Annexin V) (HGC27-S cells [2]) | interaction with P-gp (in words) (P-gp; MDCK-MDR1 cells, Calcein-AM) | EC50 (P-gp; [10]) | percentage of Ki67+ cells (HGC27-S cells [3]) | relative migration rate (control cells = 1) (HGC27-R cells [4]) | relative migration rate (untreated cells = 1) (AGS cells [5]) | relative migration rate (untreated cells = 1) (HGC27-S cells [6]) | expression of autophagy proteins (ATG5, ATG7, ATG12, Beclin-1, p62, LC3-II) [7] | VEGFA secretion in culture medium (HGC27-R cells [8]) | VEGFA secretion in culture medium (AGS cells [9]) | CB1R affinity % at 1µM (percentage of displacement at 1 µM) (CB1R; 1 µM) | EC50 (P-gp) | percentage of Ki67+ cells (HGC27-S cells [3]; HGC27-S, 48 h, combination with 4 nM PTX (10 µM compound; 6 µM AM630), PTX alone 58.1%) | percentage of Ki67+ cells (HGC27-S cells [3]; HGC27-S, 48 h, single treatment (10 µM CC48; 4 nM PTX), control 80.50%) | Ki67(+) cells (HGC27-S cells [3]; [11]) | Ki67(-) cells (HGC27-S cells [3]; [11]) | Ki (CB1R; ± SEM, read-out: CB1R affinity Ki)
COc1ccc(C(=O)c2c(C)n(CCN3CCOCC3)c3cc(I)ccc23)cc1 [AM630, reference compound] | 8 fold | 8 fold | low interaction with the pump | 16.8 ± 3.2 µM | 40.1% | 0.2 | 0.7 | 0.6 | dose-dependent increase of autophagic proteins | – | – | – | – | – | – | – | – | –
CCCCCNc1ccccc1C(=O)NC12CC3CC(CC(C3)C1)C2 [ASF151] | – | – | excluded interaction with P-gp | > 100 µM | 38.6% | – | – | – | less potent inducer of some autophagy-related proteins | 8 pg/mL/cell | 4.4 pg/mL/cell | 31%^23 | – | – | – | – | – | –
O=C(NC12CC3CC(CC(C3)C1)C2)c1ccccc1OCc1ccccc1 [CC48] | 6 fold | 2 fold | moderate interaction with P-gp | – | – | 0.76 | 0.8 | 0.6 | – | 6.5 pg/mL/cell | 5.8 pg/mL/cell | – | 7.75 ± 1.25 µM | 42.3% | 75.75% | 75.75% | 24.25% | 0.2413 ± 0.0024 µM
